Source: the supplement of paper PMC11208160

Assay: recombinant UMI read abundance after kanamycin selection (control-corrected) (log10(CPM+1)); higher = more efficient recombination; extreme values may be limits of the assay; sequences stand for … in AGTGCAGAGAAAATCGGCCAGTTTTCTCTGCCTGCAGTCCGCATGCCGTGGGACCCCTTGGGTTCTAACCTGTTGCCTAGATTTATGCAGCGGACTGCCTTTCTCCCAAAGTGATAAACCGG…AGGTTGGTTTCACT; site = the 11-nt donor
How it was run: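 After plating on IPTG (0.07 mM) plus kanamycin, or unselected, in two replicates, recombinant UMIs were PCR-amplified across the donor–target junction and sequenced. The cells were Escherichia coli co-electroporated with a UMI-tagged donor and donor-binding-loop pair library and a target plasmid with a fixed target and T7-inducible IS621 bridge recombinase. Values are log10(CPM+1), with CPM averaged over replicates and scaled by control-derived factors.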

Row | Sequence | recombinant UMI read abundance (log10)
1 | AGGAAGACATGGACCGGTTTTCCCGGTAATCCGTATTTGCA (site ACGAAGACTTG) | 0.832
2 | AGGAAGACATGGACCGGTTTTCCCGGTAATCCGTATTTGCA (site ACGAAGTCTTG) | 0
3 | AGGAAGACATGGACCGGTTTTCCCGGTAATCCGTATTTGCA (site ACGATGACTTG) | 0
4 | AGGAAGACATGGACCGGTTTTCCCGGTAATCCGTATTTGCA (site ACGGAGACTTG) | 2.51
5 | AGGAAGACATGGACCGGTTTTCCCGGTAATCCGTATTTGCA (site AGAAAAACTTG) | 0
6 | AGGAAGACATGGACCGGTTTTCCCGGTAATCCGTATTTGCA (site AGAAAGACTCG) | 0.0197
7 | AGGAAGACATGGACCGGTTTTCCCGGTAATCCGTATTTGCA (site AGAAAGACTTA) | 0.795
8 | AGGAAGACATGGACCGGTTTTCCCGGTAATCCGTATTTGCA (site AGAAAGACTTG) | 2.32
9 | AGGAAGACATGGACCGGTTTTCCCGGTAATCCGTATTTGCA (site AGAAAGTCTTG) | 0.0125
10 | AGGAAGACATGGACCGGTTTTCCCGGTAATCCGTATTTGCA (site AGAATGACTTG) | 0.777
11 | AGGAAGACATGGACCGGTTTTCCCGGTAATCCGTATTTGCA (site AGAGAGACTTG) | 1.79
12 | AGGAAGACATGGACCGGTTTTCCCGGTAATCCGTATTTGCA (site AGCAAGACTAG) | 0.0137
13 | AGGAAGACATGGACCGGTTTTCCCGGTAATCCGTATTTGCA (site AGCAAGACTTC) | 0.00298
14 | AGGAAGACATGGACCGGTTTTCCCGGTAATCCGTATTTGCA (site AGCAAGACTTG) | 0.723
15 | AGGAAGACATGGACCGGTTTTCCCGGTAATCCGTATTTGCA (site AGCAAGGCTTG) | 0.00883
16 | AGGAAGACATGGACCGGTTTTCCCGGTAATCCGTATTTGCA (site AGCAATACTTG) | 0
17 | AGGAAGACATGGACCGGTTTTCCCGGTAATCCGTATTTGCA (site AGCACGACTTG) | 0
18 | AGGAAGACATGGACCGGTTTTCCCGGTAATCCGTATTTGCA (site AGCCAGACTTG) | 0.654
19 | AGGAAGACATGGACCGGTTTTCCCGGTAATCCGTATTTGCA (site AGGAAAACTCG) | 0

Row | Sequence | recombinant UMI read abundance (log10)
20 | AGGAAGACATGGACCGGTTTTCCCGGTAATCCGTATTTGCA (site AGGAAAACTTA) | 0
21 | AGGAAGACATGGACCGGTTTTCCCGGTAATCCGTATTTGCA (site AGGAAAACTTG) | 0.57
22 | AGGAAGACATGGACCGGTTTTCCCGGTAATCCGTATTTGCA (site AGGAAATCTTG) | 0
23 | AGGAAGACATGGACCGGTTTTCCCGGTAATCCGTATTTGCA (site AGGAACACTGG) | 0.014
24 | AGGAAGACATGGACCGGTTTTCCCGGTAATCCGTATTTGCA (site AGGAACACTTG) | 1.51
25 | AGGAAGACATGGACCGGTTTTCCCGGTAATCCGTATTTGCA (site AGGAACACTTT) | 0.0161
26 | AGGAAGACATGGACCGGTTTTCCCGGTAATCCGTATTTGCA (site AGGAACCCTTG) | 0
27 | AGGAAGACATGGACCGGTTTTCCCGGTAATCCGTATTTGCA (site AGGAAGACTAC) | 0.00471
28 | AGGAAGACATGGACCGGTTTTCCCGGTAATCCGTATTTGCA (site AGGAAGACTAG) | 0.102
29 | AGGAAGACATGGACCGGTTTTCCCGGTAATCCGTATTTGCA (site AGGAAGACTCA) | 0.0159
30 | AGGAAGACATGGACCGGTTTTCCCGGTAATCCGTATTTGCA (site AGGAAGACTCG) | 0.784
31 | AGGAAGACATGGACCGGTTTTCCCGGTAATCCGTATTTGCA (site AGGAAGACTGG) | 1.34
32 | AGGAAGACATGGACCGGTTTTCCCGGTAATCCGTATTTGCA (site AGGAAGACTGT) | 0
33 | AGGAAGACATGGACCGGTTTTCCCGGTAATCCGTATTTGCA (site AGGAAGACTTA) | 1.62
34 | AGGAAGACATGGACCGGTTTTCCCGGTAATCCGTATTTGCA (site AGGAAGACTTC) | 0.0105
35 | AGGAAGACATGGACCGGTTTTCCCGGTAATCCGTATTTGCA (site AGGAAGACTTG) | 2.88
36 | AGGAAGACATGGACCGGTTTTCCCGGTAATCCGTATTTGCA (site AGGAAGACTTT) | 2.15
37 | AGGAAGACATGGACCGGTTTTCCCGGTAATCCGTATTTGCA (site AGGAAGCCTGG) | 0
38 | AGGAAGACATGGACCGGTTTTCCCGGTAATCCGTATTTGCA (site AGGAAGCCTTG) | 0

Row | Sequence | recombinant UMI read abundance (log10)
39 | AGGAAGACATGGACCGGTTTTCCCGGTAATCCGTATTTGCA (site AGGAAGCCTTT) | 0
40 | AGGAAGACATGGACCGGTTTTCCCGGTAATCCGTATTTGCA (site AGGAAGGCTAG) | 0
41 | AGGAAGACATGGACCGGTTTTCCCGGTAATCCGTATTTGCA (site AGGAAGGCTTC) | 0
42 | AGGAAGACATGGACCGGTTTTCCCGGTAATCCGTATTTGCA (site AGGAAGGCTTG) | 1.84
43 | AGGAAGACATGGACCGGTTTTCCCGGTAATCCGTATTTGCA (site AGGAAGTCTCG) | 0
44 | AGGAAGACATGGACCGGTTTTCCCGGTAATCCGTATTTGCA (site AGGAAGTCTTA) | 0.81
45 | AGGAAGACATGGACCGGTTTTCCCGGTAATCCGTATTTGCA (site AGGAAGTCTTG) | 1.05
46 | AGGAAGACATGGACCGGTTTTCCCGGTAATCCGTATTTGCA (site AGGAATACTAG) | 0
47 | AGGAAGACATGGACCGGTTTTCCCGGTAATCCGTATTTGCA (site AGGAATACTTC) | 0
48 | AGGAAGACATGGACCGGTTTTCCCGGTAATCCGTATTTGCA (site AGGAATACTTG) | 1.12
49 | AGGAAGACATGGACCGGTTTTCCCGGTAATCCGTATTTGCA (site AGGAATGCTTG) | 0
50 | AGGAAGACATGGACCGGTTTTCCCGGTAATCCGTATTTGCA (site AGGACGACTAG) | 0.0203
51 | AGGAAGACATGGACCGGTTTTCCCGGTAATCCGTATTTGCA (site AGGACGACTTC) | 0.00604
52 | AGGAAGACATGGACCGGTTTTCCCGGTAATCCGTATTTGCA (site AGGACGACTTG) | 0.36
53 | AGGAAGACATGGACCGGTTTTCCCGGTAATCCGTATTTGCA (site AGGACGGCTTG) | 0.00854
54 | AGGAAGACATGGACCGGTTTTCCCGGTAATCCGTATTTGCA (site AGGACTACTTG) | 0
55 | AGGAAGACATGGACCGGTTTTCCCGGTAATCCGTATTTGCA (site AGGAGCACTTG) | 0.0101
56 | AGGAAGACATGGACCGGTTTTCCCGGTAATCCGTATTTGCA (site AGGAGGACTGG) | 0
57 | AGGAAGACATGGACCGGTTTTCCCGGTAATCCGTATTTGCA (site AGGAGGACTTG) | 0
